Source: patent US11504394B2, “Targeted ionophore-based metal delivery” (The Regents of the University of California, priority 2018, dated 2022)

Columns and labels:
[1] = tested on: blood urea nitrogen (BUN); assay: Blood urea nitrogen (BUN) assay on serum; format: in vivo, mice; conditions: 0.75 mg Cu/kg
Procedure: Mice were immediately euthanized by cervical dislocation.
Liver lysate (TBARS Assay via TCA Method, Cayman Chemical) and serum (BUN Assay, Invitrogen; ALT Assay, Cayman Chemical) samples were processed according to manufacturer instructions; sample concentration was selected based on initial dilution screening to fall within linear range of the standard curve. All samples were analyzed in triplicate.

[2] = mouse, in vivo
Procedure: FVB-luc+ mice were heavily anesthetized and blood was collected via cardiac puncture. Mice were immediately euthanized by cervical dislocation. Tissues were harvested, rinsed twice with DPBS, snap-frozen under liquid nitrogen, and placed on dry ice in cryotubes and stored at −80° C. until analysis. Serum was isolated by allowing blood samples to coagulate for 1 hour at room temperature, centrifuging at 1,500 g for 15 minutes at 4° C., then collecting the serum supernatant. Samples were aliquoted, snap-frozen, and stored at −80° C. until analysis.
20-100 mg portions of the harvested tissues were digested in concentrated nitric acid (100 mg tissue/mL HNO3, BDH Aristar Ultra) at 95° C. for 2 h in 1.5 mL tubes (Sarstedt) with small holes poked in the caps with an 18G needle. After overnight incubation at room temperature, samples were diluted into freshly prepared 2% nitric acid and doped with a gallium internal standard (Inorganic Ventures, diluted from 1 ppm in 2% nitric acid to a 20 ppb final concentration). The copper content was determined by measuring ^63Cu using a Thermo Fisher iCAP-Qc ICP-MS in Kinetic Energy Discrimination (KED) mode. Measurements were normalized to a standard curve of known copper concentrations doped with 20 ppb Ga. The standard curve was diluted from CMS-5 (Inorganic Ventures).

[3] = tested on: labile Cu^+ pool; assay: In vivo bioluminescence imaging with CCL-1 / D-Luc, liver region; set-up: species or system FVB-luc^+ mice; conditions: 24 hours after ionophore, 0.75 mg Cu/kg i.p.
Procedure: A Xenogen IVIS Spectrum instrument (Caliper Life Sciences) was used for bioluminescence imaging in all animal experiments, and image analysis was performed using the Living Image software. The total photon flux for each animal was determined by drawing a region of interest around the liver and integrating photon flux over the total imaging period (area under the curve). We selected our liver region of interest based on comparing the bioluminescence data in vivo and ex vivo, as described in our previous studies with the CCL-1 probe.^27 The same region of interest around the liver was applied to analyzing both the CCL-1 and D-Luc data. The data plotted in FIG. 8A represents the ratio of CCL-1 integrated photon flux to basal D-luc integrated photon flux. Mice were anesthetized prior to injection and during imaging via inhalation of isoflurane. Isoflurane was purchased from Phoenix Pharmaceuticals, Inc. DMSO was purchased from Sigma-Aldrich, Dulbecco's phosphate buffered saline was purchased from Gibco, and medical-grade oxygen was purchased from Praxair.
FVB-luc+ mice were given intraperitoneal (i.p.) injections of vehicle (50 μL 1:1 DMSO:DPBS), 3.46 mg/kg Cu(gtsm), or 7.26 mg/kg Gal-Cu(gtsm) under anesthesia with isoflurane. The ionophore concentrations were chosen to give an equivalent copper dose of 0.75 mg Cu/kg mouse at 0.6 mg Cu/mL vehicle. […]

[4] = tested on: ATP7B; assay: Western blot of liver lysates, ATP7B; format: in vivo, mouse; conditions: 6 and 24 hours
Procedure: (§1) Frozen mouse livers were minced into 50 mg samples on dry ice and homogenized in ice-cold RIPA buffer (25 mM Tris.HCl pH 7.6, 150 mM NaCl, 1% NP-40, 1% sodium deoxycholate, 0.1% SDS) containing protease inhibitor cocktail with EDTA (Roche) at 100 mg/mL using a hand-held mechanical homogenizer. Homogenates were incubated on ice for 30 min and centrifuged at 12,000×g for 20 min at 4° C. The soluble protein lysates were collected from underneath the upper lipid layer with a pipette and transferred to new tubes. Protein concentration was determined using a detergent-compatible Bradford Assay (Pierce).
(§2) Protein lysates were denatured in NuPAGE lithium dodecyl sulfate sample buffer (Invitrogen) containing 10% v/v β-mercaptoethanol as a reducing agent. […] The membranes were washed 5 times for 5 minutes in TBST, then visualized using enhanced chemiluminescence (Western Lighting Plus for visualizing CCS and ATP7B, Perkin Elmer; Western Clarity Max for visualizing CTR1 and MT, Bio-Rad) recorded on a BioRad GelDoc imaging station. β-actin was probed to determine equal loading using anti-β-actin (sc-69879, Santa Cruz Biotechnology) and AlexaFluor 647-conjugated anti-mouse IgG (A31571, Molecular Probes) antibodies at 1:5000 and 1:2500 dilutions, respectively, with visualization using fluorescence recorded on a BioRad GelDoc imaging station.

[5] = tested on: MT-I/MT-II; assay: Western blot of liver lysates, MT-I/II; format: in vivo, mouse; conditions: 6 hours and 24 hours
Procedure: as §1, §2

[6] = tested on: CTR1; assay: Western blot of liver lysates, CTR1; format: in vivo, mouse; conditions: 6 and 24 hour timepoints
Procedure: as §1, §2

[7] = tested on: ATP7B Cu export protein; assay: Western blot ATP7B in high fat diet mice; format: in vivo
[8] = tested on: HepG2 cells; assay: Confocal imaging with copper sensing CF4 fluorescent probe; format: cell-based; conditions: HepG2, 100 μM Gal-Cu(gtsm) or 2 μM Cu(gtsm), 3 hours
Procedure: Confocal fluorescence images were acquired with a Zeiss LSM710 laser-scanning microscope with a 20× objective lens. Excitation at 543 nm for CF4 was carried out with appropriate lasers, and emission was acquired from 550 to 650 nm. HepG2 cells were plated between 50-80% confluency in 8-well glass chamber slides with gelatin coating. Cells were incubated with either vehicle, Cu(gtsm), or Gal-Cu(gtsm) for 3 hours in low glucose DMEM. The media was then aspirated and replaced with CF4 or Ctrl-CF4-S2 (2 μM freshly diluted from a 1 mM stock solution) in DPBS with calcium and magnesium, then incubated at 37° C. for 30 minutes. The buffer was then replaced with fresh DPBS (+Ca, +Mg) for imaging. Image analysis and quantification was performed using ImageJ (National Institutes of Health). Mean fluorescence intensity was analyzed with a minimum threshold of 20 pixels and maximum threshold of 255 pixels.

CNC1=N[N+]2=CC=[N+]3N=C(NCCOCCOCCOC4OC(CO)C(O)C(O)C4NC(C)=O)[S][Cu-2]23[S]1 (stereo not drawn) [Gal-Cu(gtsm)]
BUN levels [1]: not | hepatic copper delivered relative to Cu(gtsm) [2]: ca. 4 times | time for hepatic copper stores to clear to basal levels ([2]; ip): 72 h | bioluminescent CCL-1/D-luc liver signal [3]: returns to basal levels | ATP7B expression in liver [4]: increased | MT-I/MT-II expression in liver [5]: increases dramatically | CTR1 expression (monomer and truncated forms) in liver [6]: Increased expression | ATP7B expression [7]: reduced expression | CF4 fluorescence [8]: increased fluorescence
